Source: the supplement of paper PMC10307832

Legend:
Assay in all cases: relative viability (nuclei count vs DMSO), 5 days (fraction); higher = more cells survive
[1] = compound: CC[C@@H](C)CNCC(=O)N1CCC2=C([C@@H]1COC3=CC=CC(=C3)C)C=CS2 [RU-SKI 43] + CC(=O)Nc1cccc(-n2c(=O)n(C3CC3)c(=O)c3c(Nc4ccc(I)cc4F)n(C)c(=O)c(C)c32)c1 [Trametinib] (partner 0.02 µM)
Method in brief: (§1)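 Relative viability equals treated-well nuclei counts divided by vehicle-well nuclei counts. Counts came from 4× images of lung cancer cell lines grown in 1536-well plates for 5 days after pin-tool dosing on the day after seeding. Dosing used one drug alone or a fixed anchor-drug dose plus five library-drug doses (not always all listed) in √10 steps, and values are medians of duplicate plates.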

[2] = compound: Cn1cc(-c2cnc3ccc4ccc(CS(=O)(=O)NCc5ccccn5)cc4c(=O)c3c2)cn1 [MK-8033] + COc1cc2c(Oc3ccc(NC(=O)C4(C(=O)Nc5ccc(F)cc5)CC4)cc3F)ccnc2cc1OCCCN1CCOCC1 [Foretinib] (partner 0.25 µM)
Method in brief: as §1

[3] = compound: CC[C@@H](C)CNCC(=O)N1CCC2=C([C@@H]1COC3=CC=CC(=C3)C)C=CS2 [RU-SKI 43] + COc1cc2c(Oc3ccc(NC(=O)C4(C(=O)Nc5ccc(F)cc5)CC4)cc3F)ccnc2cc1OCCCN1CCOCC1 [Foretinib] (partner 0.25 µM)
Method in brief: as §1

[4] = compound: CC[C@@H](C)CNCC(=O)N1CCC2=C([C@@H]1COC3=CC=CC(=C3)C)C=CS2 [RU-SKI 43] + Cc1cc(Nc2cc(N3CCN(C)CC3)nc(Sc3ccc(NC(=O)C4CC4)cc3)n2)n[nH]1 [Tozasertib] (partner 0.1 µM)
Method in brief: as §1

Row | Cell Line | relative viability ([1]; first compound 0.1 µM) | relative viability ([1]; first compound 0.3162 µM) | relative viability ([1]; first compound 1 µM) | relative viability ([1]; first compound 3.162 µM) | relative viability ([1]; first compound 10 µM) | relative viability ([2]; first compound 0.02 µM) | relative viability ([2]; first compound 0.06325 µM) | relative viability ([2]; first compound 0.2 µM) | relative viability ([2]; first compound 0.6325 µM) | relative viability ([2]; first compound 2 µM) | relative viability ([3]; first compound 0.1 µM) | relative viability ([3]; first compound 0.3162 µM) | relative viability ([3]; first compound 1 µM) | relative viability ([3]; first compound 3.162 µM) | relative viability ([3]; first compound 10 µM) | relative viability ([4]; first compound 0.1 µM) | relative viability ([4]; first compound 0.3162 µM) | relative viability ([4]; first compound 1 µM) | relative viability ([4]; first compound 3.162 µM) | relative viability ([4]; first compound 10 µM)
1 | LOU-NH91 | 0.774 | 0.749 | 0.802 | 0.825 | 0.808 | 0.94 | 0.583 | 0.906 | 0.878 | 0.9 | 0.953 | 0.912 | 0.914 | 1.01 | 0.897 | 0.659 | 0.646 | 0.672 | 0.702 | 0.6
2 | NCI-H650 | 0.905 | 0.931 |  | 1.05 | 0.96 | 1.06 | 1.08 | 1.02 | 1.02 | 1.02 | 1.05 | 1.02 | 1.1 | 1.09 | 1.08 | 0.724 | 0.717 | 0.765 | 0.709 | 0.654
3 | NCI-H2023 | 0.585 | 0.643 | 0.547 | 0.685 | 0.528 | 0.822 | 0.786 | 0.701 | 0.948 | 0.771 | 0.954 | 1.1 | 0.82 | 0.828 | 0.558 | 0.32 | 0.438 | 0.516 | 0.424 | 0.218
4 | NCI-H1563 |  |  |  |  |  | 0.899 | 0.927 | 0.903 | 0.97 | 0.981 | 0.918 | 0.985 | 0.957 | 0.855 | 0.755 |  |  |  |  | 
5 | LCLC-103H | 0.689 | 0.755 | 0.726 | 0.677 | 0.724 | 0.747 | 0.707 | 0.696 | 0.84 | 0.806 | 0.759 | 0.896 | 0.91 | 0.843 | 0.783 | 0.411 | 0.445 | 0.498 | 0.501 | 0.373
6 | HCC-15 | 0.41 | 0.373 | 0.37 | 0.384 | 0.336 | 0.977 | 0.919 | 0.994 | 1.04 | 1.02 | 1.1 | 1.17 | 1.16 | 1.11 | 1.04 | 0.43 | 0.327 | 0.27 | 0.252 | 0.219
7 | NCI-H838 | 0.491 | 0.645 | 0.471 | 0.529 | 0.505 | 1.05 | 0.993 | 0.994 | 0.89 | 0.954 | 1.15 | 0.994 | 0.987 | 1.21 | 0.964 | 0.243 | 0.242 | 0.273 | 0.258 | 0.254
8 | NCI-H2009 | 0.28 | 0.295 | 0.291 | 0.313 | 0.244 | 1.25 | 1.25 | 1.19 | 1.24 | 1.14 | 1.21 | 1.42 | 1.31 | 1.24 | 1.17 | 0.725 | 0.896 | 0.727 | 0.64 | 0.504
